Data set [1] addresses T1, Solute carrier organic anion transporter family member 1B1 (Homo sapiens, UniProt Q9Y6L6).
T1 sequence (Q9Y6L6 whole entry): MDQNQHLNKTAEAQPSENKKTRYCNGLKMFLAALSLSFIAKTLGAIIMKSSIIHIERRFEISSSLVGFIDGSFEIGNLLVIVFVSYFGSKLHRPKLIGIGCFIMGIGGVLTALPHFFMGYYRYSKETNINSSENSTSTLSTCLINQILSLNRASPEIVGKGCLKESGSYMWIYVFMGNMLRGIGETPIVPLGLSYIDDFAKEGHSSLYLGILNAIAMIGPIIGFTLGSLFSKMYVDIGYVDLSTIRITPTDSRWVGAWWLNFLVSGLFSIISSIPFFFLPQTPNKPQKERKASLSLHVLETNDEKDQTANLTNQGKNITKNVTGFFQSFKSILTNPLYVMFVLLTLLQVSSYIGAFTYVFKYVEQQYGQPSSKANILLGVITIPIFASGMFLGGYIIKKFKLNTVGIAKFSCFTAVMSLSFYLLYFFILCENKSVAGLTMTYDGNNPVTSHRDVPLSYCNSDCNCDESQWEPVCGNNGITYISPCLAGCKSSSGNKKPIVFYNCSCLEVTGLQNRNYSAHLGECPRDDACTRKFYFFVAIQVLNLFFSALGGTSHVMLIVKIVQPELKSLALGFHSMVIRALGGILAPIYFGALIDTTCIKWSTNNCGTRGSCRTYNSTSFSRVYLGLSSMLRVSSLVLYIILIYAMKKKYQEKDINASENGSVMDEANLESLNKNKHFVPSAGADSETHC

The target of data set [2] is T2, Solute carrier organic anion transporter family member 1B3 (Homo sapiens, UniProt Q9NPD5).
T2 sequence (Q9NPD5 whole entry): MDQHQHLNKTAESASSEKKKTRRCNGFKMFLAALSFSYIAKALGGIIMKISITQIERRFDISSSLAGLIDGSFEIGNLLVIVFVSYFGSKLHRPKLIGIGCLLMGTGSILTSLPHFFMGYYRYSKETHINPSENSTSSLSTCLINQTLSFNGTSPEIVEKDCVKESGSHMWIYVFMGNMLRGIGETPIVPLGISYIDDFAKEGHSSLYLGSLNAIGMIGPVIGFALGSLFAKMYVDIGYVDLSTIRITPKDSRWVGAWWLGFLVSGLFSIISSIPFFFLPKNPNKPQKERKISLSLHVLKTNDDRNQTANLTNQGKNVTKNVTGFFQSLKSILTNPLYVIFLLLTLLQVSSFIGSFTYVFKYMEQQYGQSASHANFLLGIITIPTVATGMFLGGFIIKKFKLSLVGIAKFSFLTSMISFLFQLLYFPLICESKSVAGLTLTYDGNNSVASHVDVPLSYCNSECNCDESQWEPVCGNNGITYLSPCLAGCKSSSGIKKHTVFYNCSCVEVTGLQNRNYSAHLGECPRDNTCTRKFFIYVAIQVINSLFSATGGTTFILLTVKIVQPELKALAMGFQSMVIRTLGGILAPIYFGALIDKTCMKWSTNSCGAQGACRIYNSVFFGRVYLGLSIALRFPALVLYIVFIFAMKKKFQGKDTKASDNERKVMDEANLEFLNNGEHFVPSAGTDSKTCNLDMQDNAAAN

Data set [3] has as its target T1, Solute carrier organic anion transporter family member 1B1. To be noted: chinese hamster, cho, 10 µM.
Data set [4] deals with T2, Solute carrier organic anion transporter family member 1B3. To be noted: chinese hamster, cho, 10 µM.
For data set [5], the target named is T1, Solute carrier organic anion transporter family member 1B1. The source holds these as a separate data set.
For data set [6], the target named is T2, Solute carrier organic anion transporter family member 1B3. The source holds these as a separate data set.

Values joined by “and” are separate entries in the source; they are usually repeats but may differ in a detail not shown here. Equal values may be shown once.

`C=C1[C@@H]2CC[C@@]3(C)[C@H](c4ccoc4)OC(=O)C[C@]13O[C@H]1C[C@H](O)C(C)(C)[C@H](CC(=O)OC)[C@]12C`: the Ki in data set [1] was determined as 0.68 µM; in data set [2] it was 3.06 µM. Moreover, the residual activity in data set [3] was 16%; in data set [4], 17.5%.

On to `CC(=O)O[C@@H]1C[C@H]2C(C)(C)[C@@H](O)CC[C@]2(C)[C@H]2CC[C@]3(C)C(=CC(=O)O[C@H]3c3ccoc3)[C@@]21C`, for which the Ki in data set [1] was 0.93 µM and 1.49 µM; in data set [2] it was 2.5 µM and 2.39 µM. In addition, the results for the residual activity in data set [3] and in data set [4] were 31.46% and 25.89%, respectively.

As to `CC1(C)C(=O)[C@@H]2O[C@@H]2[C@]2(C)[C@H]3CC[C@@]4(C)[C@H](c5ccoc5)OC(=O)[C@H]5O[C@]54[C@]3(C)[C@H](O)C[C@@H]12`, the concentration for half-maximal inhibition (IC50) is 1.58 µM in data set [5] and 2.95 µM in data set [6]. Also, the residual activity in data set [3] is 12.73%; in data set [4], 21.3%.

Turning to `CC(=O)O[C@@H]1CC2C(C)(C)[C@H](O)C[C@H](O)[C@@]2(C)C2CC[C@]3(C)C(=CC(=O)O[C@@H]3c3ccoc3)[C@]21C` (stereo partly specified) [1,3-DIDEACETYLDEOXYKHIVORIN], the inhibitory constant (Ki) in data set [1] was found to be 2.96 µM; in data set [2], 6.59 µM. For the same molecule, the results for the residual activity in data set [3] and in data set [4] were 31.1% and 50.83%, respectively.

With `CC(=O)O[C@H]1CC[C@]2(C)C(C[C@@H](OC(C)=O)[C@]3(C)C4=CC(=O)O[C@H](c5ccoc5)[C@@]4(C)CCC23)C1(C)C` (stereo partly drawn) [3-DEOXO-3beta-ACETOXYDEOXYDIHYDROGEDUNIN], the Ki was determined as 0.41 µM in data set [1] and 2.67 µM in data set [2]. Moreover, the values for the residual activity in data set [3] and in data set [4] were 14.97% and 20.65%, respectively.

In the case of `CC(=O)O[C@H]1CC[C@]2(C)[C@H]3C(=O)C=C4[C@@H]5[C@@H](C)[C@H](C)CC[C@]5(C(=O)O)CC[C@@]4(C)[C@]3(C)CC[C@H]2C1(C)C` [11-OXOURSOLIC ACID ACETATE], the 50% inhibitory concentration (IC50) in data set [5] was 11.2 µM; in data set [6], 11.5 µM. The residual activity was 19.79% in data set [3] and 5.189% in data set [4].

In the case of `CCCCCC[C@H]1C(=O)O[C@H](C)[C@H](NC(=O)c2cccc(NC=O)c2O)C(=O)O[C@@H](C)[C@@H]1OC(=O)CC(C)C` [ANTIMYCIN A], the Ki is 2.2 µM in data set [1] and 3.82 µM in data set [2]. The residual activity is 31.93% in data set [3] and 28.62% in data set [4].

Turning to `CC[C@H]1OC(=O)[C@H](C)[C@@H](O[C@H]2C[C@@](C)(OC)[C@@H](O)[C@H](C)O2)[C@H](C)[C@@H](O[C@@H]2O[C@H](C)C[C@H](N(C)C)[C@H]2O)[C@](C)(OC)C[C@@H](C)C(=O)[C@H](C)[C@@H](O)[C@]1(C)O` [CLARITHROMYCIN], the IC50 is 3.09 µM in data set [5] and 3.31 µM in data set [6]. Also, the results for the residual activity in data set [3] and in data set [4] were 56.72% and 80.47%, respectively.

With `Cc1ccc(C)c(OCCCC(C)(C)C(=O)O)c1` [GEMFIBROZIL], the values for the concentration for half-maximal inhibition (IC50) in data set [5] and in data set [6] were 4.07 µM and 7.08 µM, respectively. Further, the residual activity in data set [3] is recorded as 56.21%; in data set [4], 71.16%.

The molecule `N[C@@H](C(=O)O)[C@@H](O)[C@H](O)[C@H](O)CO` [GLUCOSAMINIC ACID] had an IC50 in data set [5] of 11.7 µM. Besides, the residual activity is 63.53% in data set [3] and 25.61% in data set [4].

With `CCCCCN(CCCCC)C(=O)C(CCC(=O)[O-])NC(=O)c1ccc(Cl)c(Cl)c1.[Na+]` (stereo unspecified) [LORGLUMIDE SODIUM], the results for the Ki in data set [1] and in data set [2] were 2.01 µM and 2.71 µM, respectively. Besides, the residual activity in data set [3] amounted to 16.54%; in data set [4] it was 32.85%.

As for `CC[C@H]1/C=C/C=C/C[C@@H](C)[C@H](O)[C@@](C)(O)C(=O)[C@@H](C)[C@H](O)[C@@H](C)C(=O)[C@@H](C)[C@H](O)[C@@H](C)/C=C/C(=O)O[C@@H]2[C@H](C)[C@H](CC1)O[C@]1(CC[C@H](C)[C@H](C[C@@H](C)O)O1)[C@H]2C` [OLIGOMYCIN], the inhibition constant (Ki) in data set [1] is 0.25 µM; in data set [2], 0.44 µM. Also, the residual activity in data set [3] turned out to be 11.28%; in data set [4] it was 3.002%.

`CC[C@@H](C(=O)[C@@H](C)[C@@H](O)[C@H](C)[C@@H]1O[C@@H]([C@@H](CC)C(=O)[O-])CC[C@@H]1C)[C@H]1O[C@]2(C=C[C@@H](O)[C@]3(CC[C@@](C)([C@H]4CC[C@](O)(CC)[C@H](C)O4)O3)O2)[C@H](C)C[C@@H]1C.[Na+]` [SALINOMYCIN SODIUM]: the Ki in data set [1] stood at 2.03 µM; in data set [2], 3.31 µM. The residual activity in data set [3] is given as 21.72%; in data set [4], 16.99%.

For `CC[C@H]1OC(=O)[C@H](C)C(=O)[C@H](C)[C@@H](O[C@@H]2O[C@H](C)C[C@H](N(C)C)[C@H]2O)[C@](C)(OC)C[C@@H](C)C(=O)[C@H](C)[C@H]2N(CCCCn3cnc(-c4cccnc4)c3)C(=O)O[C@]12C` [TELITHROMYCIN], the results for the IC50 in data set [5] and in data set [6] were 3.47 µM and 5.89 µM, respectively. The figures for the residual activity in data set [3] and in data set [4] were 62.01% and 60.1%, respectively.

With `N#C/C(=C\c1cccc(O)c1)C(=O)O` [alpha-CYANO-3-HYDROXYCINNAMIC ACID], the residual activity in data set [3] came out at 102.6%; in data set [4] it was 89.69%.

With `N#C/C(=C\c1ccc(O)cc1)C(=O)O` [alpha-CYANO-4-HYDROXYCINNAMIC ACID], the residual activity is 112.8% in data set [3] and 105.3% in data set [4].

In the case of `Cc1c(C)c2c(c(C)c1O)CCC(C)(CCCC(C)CCCC(C)CCCC(C)C)O2` (stereo not drawn) [alpha-TOCHOPHEROL], the residual activity in data set [3] was determined as 85.48%; in data set [4], 84.17%.

Consider `CC(=O)O[C@H]1CC[C@]2(C)[C@H]3CC=C4[C@@H]5CC(C)(C)CC[C@]5(C)CC[C@@]4(C)[C@]3(C)CC[C@H]2C1(C)C` [beta-AMYRIN ACETATE], for which the residual activity in data set [3] is 113%; in data set [4] it was 110%.

For `CC1(C)CC[C@]2(C)CC[C@]3(C)C(=CC[C@@H]4[C@@]5(C)CC[C@H](O)C(C)(C)[C@@H]5CC[C@]43C)[C@@H]2C1` [beta-AMYRIN], the values for the residual activity in data set [3] and in data set [4] were 65.86% and 75.14%, respectively.

For `CC12CCCC(O)(C1)C1CC(C)(C)C1CC2` (stereo not drawn) [beta-CARYOPHYLLENE ALCOHOL], the residual activity in data set [3] stood at 117.4%; in data set [4], 113%.

For the molecule `CC(=O)O[C@@H]1C[C@H]2C(C)(C)[C@@H](O)CC[C@]2(C)[C@H]2CC[C@@]3(C)[C@H](c4ccoc4)OC(=O)[C@H]4O[C@]43[C@@]21C` [beta-DIHYDROGEDUNOL], the concentration for half-maximal inhibition (IC50) in data set [5] is 1.7 µM; in data set [6], 3.24 µM. Also, the values for the residual activity in data set [3] and in data set [4] were 20.54% and 23.84%, respectively.

As to `COc1cc2c(cc1OC)C1C(=O)c3c(cc4c(c3O)C=CC(C)(C)O4)OC1CO2` (stereo not drawn) [beta-TOXICAROL], the results for the residual activity in data set [3] and in data set [4] were 67.84% and 70.52%, respectively.

In the case of `N=C(N)NCCC[C@@H](NC(=O)[C@@H](N)Cc1ccc(O)cc1)C(=O)O` [d[-Arg-2]KYOTORPHAN ACETATE], the residual activity in data set [3] is given as 114.8%; in data set [4], 98.23%.

`Cc1ccc(O)cc1` [p-CRESOL]: the residual activity worked out at 115% in data set [3] and 101.1% in data set [4].

Turning to `O=C/C=C/c1ccc(O)cc1` [p-HYDROXYCINNAMALDEHYDE], the residual activity in data set [3] is 139.6%; in data set [4] it was 70.79%.

On to `NC/C=C/C(=O)O` [t-4-AMINOCROTONIC ACID (TACA)], for which the residual activity in data set [3] is on record as 119.6%; in data set [4], 94.21%.

Source of the values: ChEMBL document CHEMBL3039007, “Structure-based identification of OATP1B1/3 inhibitors” (Mol Pharmacol, 2013).
